# Counter-ions that a name gives are not always drawn.
# Tests used:
# PAR-2 [1] = molecular target: T1, PAR-2 (Homo sapiens, UniProt P55085); experiment: PAR-2 agonist-mediated intracellular calcium dynamics assay in HCT-15 cells (modified method of Howthorne et al.); assay type: cell-based; set-up: HCT-15 cells, human colorectal cancer cell lines endogenously expressing high level of PAR-2; endogenous in cells; host or cells: HCT-15 human colorectal cancer cells; settings: for EC50: HCT-15 cells endogenously expressing PAR-2, Ca2+ sensitive fluorescent dye, 2.5 mM probenecid, serum-free RPMI
# T1 sequence (P55085 26-397): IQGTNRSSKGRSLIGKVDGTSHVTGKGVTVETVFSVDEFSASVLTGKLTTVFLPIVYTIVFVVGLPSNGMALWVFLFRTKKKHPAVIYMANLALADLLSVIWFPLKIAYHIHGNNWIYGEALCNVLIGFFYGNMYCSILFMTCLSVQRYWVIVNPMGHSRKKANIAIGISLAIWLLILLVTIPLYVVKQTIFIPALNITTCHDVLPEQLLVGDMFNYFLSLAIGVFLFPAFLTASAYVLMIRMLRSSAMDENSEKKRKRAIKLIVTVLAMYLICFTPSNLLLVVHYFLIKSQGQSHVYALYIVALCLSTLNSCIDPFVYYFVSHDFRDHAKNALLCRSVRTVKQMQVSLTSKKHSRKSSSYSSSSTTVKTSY
# Text: The PAR-2 activation of peptide derivatives represented by the general formula (1) can be tested by various known methods. For example, the method of Hollenberg (Hollenberg, M.D., et al., Can. J. Physiol. Pharmacol., 75, 832-841(1997)), the method of Kawabata et al. (Kawabata, A., et al., J. Pharmacol. Exp. Ther., 288, 358-370(1999)), the method of Howthorne et al. (Howthorne et al., A High-Throughput Microtiter Plate-Based Calcium Assay for the Study of Protease-Activated Receptor 2 Activation, Analytical Biochemistry 290, 378-379(2001)), and the like can be used. The present inventors tested PAR-2 activation potency by using the modified method of Howthorne et al. More specifically the method is for assaying calcium dynamics in a cell expressing human PAR-2 intracellularly. In this assay, PAR-2 agonist mediated calcium dynamics (concentration variability) in a cell is measured by using a multiple-well plate reader wherein the cell has Ca^2+ sensitive fluorescent dye introduced and stimulated by PAR-2 agonist under probenecid, which inhibits anion-exchange transporter, present. HCT-15 cells, human colorectal cancer cell lines endogenously expressing high level of PAR-2, were plated in a black-wall clear-bottom 96 well plate. Subconfluent cells were labeled with Ca^2+ sensitive fluorescent dye (Calcium Assay Reagent, Molecular Devices) in a RPMI culture medium in the presence of 2.5 mM probenecid absence of serum, and incubated for 1 hour at 37 ° C. Thereafter, the cells were stimulated with test compounds at various concentrations, and fluorescence change was measured using a scanning fluorometer (Flex Station, Molecular Devices) using excitation wavelength of 485 nm and fluorescence wavelength of 525 nm (cut-off wavelength of 515 nm). As a comparative compound, SLIGKV(SEQ ID: NO 1) —OH which is known as PAR-2 activated peptide was used. The results are shown in TAB.1.
# PAR-2 [2] = molecular target: T1, PAR-2; settings: relative to TRAP (tethered receptor agonist peptide); cited from earlier work
compound,measurement,setting,value
"O=C(CNC(=O)[C@H](CC1CCCCC1)NC(=O)c1ccco1)NCC(=O)N[C@@H](CCCN1CCCCC1)C(=O)NCc1ccccc1 [Example 1, (S)-2-[(2-furoyl)-β-cyclohexyl-L-alanyl-glycyl-glycyl-amino]-5-(1-piperidinyl)pentanoic acid benzyl amide]",EC50,PAR-2 [1],2.3 ± 0.3 µM
same,"agonist activity against PAR-2 (result in words; comparator not given, presumably the comparison compound)","PAR-2 [1]; HCT-15 cells, calcium assay",higher agonist activity
"O=C(CNC(=O)[C@H](CC1CCCCC1)NC(=O)c1ccco1)NCC(=O)N[C@@H](CCCN1CCCCC1)C(=O)NCCN1CCCCC1 [Example 2, (S)-2-[(2-furoyl)-β-cyclohexyl-L-alanyl-glycyl-glycyl-amino]-5-(1-piperidinyl)pentanoic acid N-[2-(1-piperidinyl)ethyl] amide dihydrochloride]",EC50,PAR-2 [1],4.1 ± 0.4 µM
Nα-benzoyl-Arg (NO2)-Leu-NH2,intensity to activate PAR-2 relative to TRAP,PAR-2 [2],about 1/100

# Source: patent publication US8133864B2, “PAR-2 agonist” (Kowa Company, Ltd., priority 2005, dated 2012)
